In test [1] the test system is Streptococcus pneumoniae. Kind of test: Antibacterial activity against Streptococcus pneumoniae RCMB 010010 at 100 umol/ml after 24 hrs by well diffusion assay. The format is functional. On the technique in general: A growth-free zone around the sample is the usual read-out of agar diffusion tests.
The test system of test [2] is Enterococcus faecalis. Kind of test: Antibacterial activity against Enterococcus faecalis RCMB 010068 at 100 umol/ml after 24 hrs by well diffusion assay. The test is classed as functional.
For test [3], the system named is Staphylococcus aureus. Kind of test: Antibacterial activity against Staphylococcus aureus RCMB 010028 at 100 umol/ml after 24 hrs by well diffusion assay. The format is functional.
The test system of test [4] is Escherichia coli. The experiment in a line: Antibacterial activity against Escherichia coli RCMB 010052 at 100 umol/ml after 24 hrs by well diffusion assay. The format is functional.
Test [5] deals with Salmonella typhimurium. Kind of test: Antibacterial activity against Salmonella typhimurium RCMB 010072 at 100 umol/ml after 24 hrs by well diffusion assay. The format is functional, Salmonella enterica subsp. enterica serovar Typhimurium.
For test [6], the system named is Streptococcus pneumoniae. Kind of test: Antibacterial activity against Streptococcus pneumoniae RCMB 010010 after 24 hrs by twofold serial dilution technique. The test is classed as functional. The settings on record: RCMB 010010, 24 h.
Test [7] deals with Enterococcus faecalis. The experiment in a line: Antibacterial activity against Enterococcus faecalis RCMB 010068 after 24 hrs by twofold serial dilution technique. The format is functional. To be noted: RCMB 010068, 24 h.
Test [8] concerns Staphylococcus aureus. Kind of test: Antibacterial activity against Staphylococcus aureus RCMB 010028 after 24 hrs by twofold serial dilution technique. The format is functional. To be noted: RCMB 010028, 24 h.
In test [9] the test system is Escherichia coli. Kind of test: Antibacterial activity against Escherichia coli RCMB 010052 after 24 hrs by twofold serial dilution technique. The format is functional. To be noted: RCMB 010052, 24 h.
The test system of test [10] is Salmonella typhimurium. Kind of test: Antibacterial activity against Salmonella typhimurium RCMB 010072 after 24 hrs by twofold serial dilution technique. The format is functional, Salmonella enterica subsp. enterica serovar Typhimurium. The settings on record: Salmonella enterica, RCMB 010072, 24 h.

SMILES strings stand for the structures. Converted amounts (≈) assume the structure as drawn.

As for `Nc1ccc(S(=O)(=O)Nc2ncccn2)cc1` [SULFADIAZINE], the “diameter of the inhibition zone (DIZ)” value amounted to 14.2 mm with Streptococcus pneumoniae [1]; 13.7 mm in the test on Enterococcus faecalis [2]; 18.3 mm with Staphylococcus aureus [3]; 14.2 mm in the test with Escherichia coli [4]; 15 mm with Salmonella typhimurium [5]. The MIC stood at 100 mM (≈ 25000 µg/mL) against Streptococcus pneumoniae [6]; 100 mM (≈ 25000 µg/mL) in the test with Enterococcus faecalis [7]; 6.25 mM (≈ 1560 µg/mL) in the test with Staphylococcus aureus [8]; 100 mM (≈ 25000 µg/mL) against Escherichia coli [9]; 50 mM (≈ 12500 µg/mL) in the test on Salmonella typhimurium [10].

Regarding `NS(=O)(=O)c1ccc(NC(=O)Cn2nc(-c3ccccc3)c3ccccc3c2=O)cc1`, the “diameter of the inhibition zone (DIZ)” value with Streptococcus pneumoniae [1] stood at 16.8 mm; with Enterococcus faecalis [2], 15.9 mm; with Staphylococcus aureus [3], 19.4 mm; in the test on Escherichia coli [4], 16.8 mm; with Salmonella typhimurium [5], 16.9 mm. For the same compound, the MIC in the test on Streptococcus pneumoniae [6] came out at 12.5 mM (≈ 5430 µg/mL); against Enterococcus faecalis [7], 25 mM (≈ 10900 µg/mL); against Staphylococcus aureus [8], 1.56 mM (≈ 678 µg/mL); against Escherichia coli [9] it was 12.5 mM (≈ 5430 µg/mL); against Salmonella typhimurium [10] it was 12.5 mM (≈ 5430 µg/mL).

For `COc1ccc(Cc2nn(CC(=O)Nc3ccc(S(N)(=O)=O)cc3)c(=O)c3ccccc23)cc1`, the “diameter of the inhibition zone (DIZ)” value in the test with Streptococcus pneumoniae [1] came to 18.2 mm; with Enterococcus faecalis [2], 16.2 mm; in the test on Staphylococcus aureus [3], 22 mm; in the test with Escherichia coli [4] it was 19.6 mm; in the test on Salmonella typhimurium [5], 20 mm. The MIC against Streptococcus pneumoniae [6] came out at 6.25 mM (≈ 2990 µg/mL); against Enterococcus faecalis [7], 25 mM (≈ 12000 µg/mL); against Staphylococcus aureus [8], 0.39 mM (≈ 187 µg/mL); in the test on Escherichia coli [9], 3.12 mM (≈ 1490 µg/mL); against Salmonella typhimurium [10] it was 1.56 mM (≈ 747 µg/mL).

Regarding `Nc1ccc(S(N)(=O)=O)cc1` [SULFANILAMIDE], the “diameter of the inhibition zone (DIZ)” value in the test with Streptococcus pneumoniae [1] amounted to 15.8 mm; in the test on Enterococcus faecalis [2], 14.2 mm; in the test on Staphylococcus aureus [3], 16.8 mm; in the test with Escherichia coli [4], 15.8 mm; in the test on Salmonella typhimurium [5] it was 14.2 mm. In addition, the minimal inhibitory concentration (MIC) against Streptococcus pneumoniae [6] was 25 mM (≈ 4310 µg/mL); in the test with Enterococcus faecalis [7], 100 mM (≈ 17200 µg/mL); in the test with Staphylococcus aureus [8], 12.5 mM (≈ 2150 µg/mL); against Escherichia coli [9], 25 mM (≈ 4310 µg/mL); against Salmonella typhimurium [10], 100 mM (≈ 17200 µg/mL).

With `O=C(Cn1nc(-c2ccccc2)c2ccccc2c1=O)Nc1ccc(S(=O)(=O)Nc2nccs2)cc1`, the “diameter of the inhibition zone (DIZ)” value in the test on Streptococcus pneumoniae [1] was 20.3 mm; in the test with Enterococcus faecalis [2], 17 mm; in the test on Staphylococcus aureus [3], 18.3 mm; in the test on Escherichia coli [4], 16.3 mm; with Salmonella typhimurium [5] it was 21 mm. In addition, the MIC was determined as 1.56 mM (≈ 807 µg/mL) against Streptococcus pneumoniae [6]; 25 mM (≈ 12900 µg/mL) against Enterococcus faecalis [7]; 12.5 mM (≈ 6470 µg/mL) in the test on Staphylococcus aureus [8]; 25 mM (≈ 12900 µg/mL) against Escherichia coli [9]; 0.78 mM (≈ 404 µg/mL) in the test with Salmonella typhimurium [10].

Regarding `NS(=O)(=O)c1ccc(NC(=O)Cn2nc(Cc3ccccc3)c3ccccc3c2=O)cc1`, the “diameter of the inhibition zone (DIZ)” value with Streptococcus pneumoniae [1] amounted to 16.2 mm; in the test with Enterococcus faecalis [2], 15.3 mm; in the test on Staphylococcus aureus [3], 21 mm; in the test on Escherichia coli [4] it was 17.6 mm; in the test on Salmonella typhimurium [5], 18.24 mm. Moreover, the MIC against Streptococcus pneumoniae [6] worked out at 25 mM (≈ 11200 µg/mL); in the test with Enterococcus faecalis [7], 50 mM (≈ 22400 µg/mL); with Staphylococcus aureus [8], 0.78 mM (≈ 350 µg/mL); in the test with Escherichia coli [9], 6.25 mM (≈ 2800 µg/mL); against Salmonella typhimurium [10], 3.12 mM (≈ 1400 µg/mL).

As to `COc1ccc(Cc2nn(CCC(=O)Nc3ccc(S(N)(=O)=O)cc3)c(=O)c3ccccc23)cc1`, the “diameter of the inhibition zone (DIZ)” value in the test with Streptococcus pneumoniae [1] stood at 18.3 mm; with Enterococcus faecalis [2], 16.7 mm; in the test with Staphylococcus aureus [3], 22.3 mm; in the test on Escherichia coli [4] it was 19.9 mm; in the test on Salmonella typhimurium [5] it was 21 mm. The MIC against Streptococcus pneumoniae [6] came to 6.25 mM (≈ 3080 µg/mL); in the test with Enterococcus faecalis [7], 12.5 mM (≈ 6160 µg/mL); in the test on Staphylococcus aureus [8] it was 0.39 mM (≈ 192 µg/mL); in the test on Escherichia coli [9], 3.12 mM (≈ 1540 µg/mL); against Salmonella typhimurium [10] it was 1.56 mM (≈ 768 µg/mL).

Consider `O=C(Cn1nc(-c2ccccc2)c2ccccc2c1=O)Nc1ccc(S(=O)(=O)Nc2ncccn2)cc1`, for which the “diameter of the inhibition zone (DIZ)” value in the test with Streptococcus pneumoniae [1] is 22.3 mm; in the test with Enterococcus faecalis [2], 20.3 mm; in the test on Staphylococcus aureus [3] it was 22.3 mm; in the test with Escherichia coli [4], 16.1 mm; with Salmonella typhimurium [5], 18.2 mm. In addition, the MIC stood at 0.39 mM (≈ 200 µg/mL) against Streptococcus pneumoniae [6]; 1.56 mM (≈ 800 µg/mL) against Enterococcus faecalis [7]; 0.39 mM (≈ 200 µg/mL) against Staphylococcus aureus [8]; 25 mM (≈ 12800 µg/mL) with Escherichia coli [9]; 6.25 mM (≈ 3200 µg/mL) with Salmonella typhimurium [10].

For the compound `O=C(Cn1nc(-c2ccc(Cl)cc2)c2ccccc2c1=O)Nc1ccc(S(=O)(=O)Nc2nccs2)cc1`, the “diameter of the inhibition zone (DIZ)” value in the test on Streptococcus pneumoniae [1] was 20.2 mm; in the test on Enterococcus faecalis [2], 17.2 mm; with Staphylococcus aureus [3], 19.9 mm; in the test on Escherichia coli [4], 22.2 mm; in the test on Salmonella typhimurium [5], 21.4 mm. Moreover, the MIC against Streptococcus pneumoniae [6] was found to be 1.56 mM (≈ 861 µg/mL); in the test with Enterococcus faecalis [7], 25 mM (≈ 13800 µg/mL); against Staphylococcus aureus [8] it was 3.12 mM (≈ 1720 µg/mL); with Escherichia coli [9], 0.39 mM (≈ 215 µg/mL); against Salmonella typhimurium [10] it was 0.78 mM (≈ 431 µg/mL).

As to `Nc1ccc(S(=O)(=O)Nc2nccs2)cc1` [SULFATHIAZOLE], the “diameter of the inhibition zone (DIZ)” value in the test on Streptococcus pneumoniae [1] is recorded as 15.8 mm; in the test on Enterococcus faecalis [2], 14.9 mm; in the test on Staphylococcus aureus [3], 15 mm; with Escherichia coli [4] it was 13.8 mm; in the test on Salmonella typhimurium [5] it was 17.2 mm. Also, the minimum inhibitory concentration (MIC) in the test with Streptococcus pneumoniae [6] was found to be 25 mM (≈ 6380 µg/mL); in the test on Enterococcus faecalis [7] it was 50 mM (≈ 12800 µg/mL); against Staphylococcus aureus [8], 50 mM (≈ 12800 µg/mL); with Escherichia coli [9], 100 mM (≈ 25500 µg/mL); against Salmonella typhimurium [10], 12.5 mM (≈ 3190 µg/mL).

For the compound `COc1ccc(Cc2nn(CC(=O)Nc3ccc(S(=O)(=O)Nc4ncccn4)cc3)c(=O)c3ccccc23)cc1`, the “diameter of the inhibition zone (DIZ)” value in the test on Streptococcus pneumoniae [1] came out at 16.3 mm; with Enterococcus faecalis [2], 15.2 mm; with Staphylococcus aureus [3] it was 18.6 mm; with Escherichia coli [4], 16.9 mm; with Salmonella typhimurium [5], 19.3 mm. The MIC in the test with Streptococcus pneumoniae [6] amounted to 25 mM (≈ 13900 µg/mL); in the test with Enterococcus faecalis [7] it was 50 mM (≈ 27800 µg/mL); in the test with Staphylococcus aureus [8], 6.25 mM (≈ 3480 µg/mL); against Escherichia coli [9], 25 mM (≈ 13900 µg/mL); in the test on Salmonella typhimurium [10], 3.12 mM (≈ 1740 µg/mL).

Consider `COc1ccc(Cc2nn(CCC(=O)Nc3ccc(S(=O)(=O)Nc4ncccn4)cc3)c(=O)c3ccccc23)cc1`, for which the “diameter of the inhibition zone (DIZ)” value in the test on Streptococcus pneumoniae [1] was determined as 15.7 mm; in the test on Enterococcus faecalis [2] it was 17.2 mm; in the test on Staphylococcus aureus [3], 19.8 mm; in the test with Escherichia coli [4] it was 16.2 mm; in the test on Salmonella typhimurium [5] it was 17.4 mm. For the same compound, the MIC against Streptococcus pneumoniae [6] is 50 mM (≈ 28500 µg/mL); with Enterococcus faecalis [7] it was 25 mM (≈ 14300 µg/mL); in the test on Staphylococcus aureus [8], 3.12 mM (≈ 1780 µg/mL); against Escherichia coli [9] it was 50 mM (≈ 28500 µg/mL); against Salmonella typhimurium [10], 25 mM (≈ 14300 µg/mL).

Broadly, the MIC is the lowest concentration that inhibits growth of the organism. A high value points to a less susceptible organism.

Source of the values: ChEMBL document CHEMBL3351668, “Improvement of antibacterial activity of some sulfa drugs through linkage to certain phthalazin-1(2H)-one scaffolds” (2014).
